As a reminder, the melting point is the temperature, or range, at which the solid turns liquid. `Cc1ccc(NCc2ccc(/C=C/C(=O)O)cc2)cc1Nc1nccc(-c2cccnc2)n1` returned a melting point of 234 to 242 °C. Next, `Cc1ccc(S(=O)(=O)NCCN(CCNS(=O)(=O)c2ccc(C)cc2)Cc2ccccc2)cc1`: 87 to 91 °C; `Cc1ccc(O)c(Cn2c(NC3CCNC(CCN4CCOCC4)C3)nc3ccc(C=Cc4ccccc4)cc32)n1` (configuration not stated): 224 °C. The compound `CC(O)c1cccc(-c2ccc(CC34CCCN3C(=O)N(c3cc(Cl)cc(Cl)c3)C4=O)cc2)c1` (configuration not stated) showed a melting point of 66.5 °C. Take `CC(C)(CO)CNS(=O)(=O)c1ccc(NC=C2C(=O)Nc3ccc4ncsc4c32)cc1`: the melting point is over 250 °C.

In turn, `COc1ccc(C)cc1NC(=O)Nc1ccc(N2CCN(C(=O)Nc3ccc(OCCO)cc3Cl)C(C)C2)cc1` (configuration not stated) had a melting point of 129 to 131 °C. `CCOC(=O)c1cnc2c(OCC)csc2c1O`: the melting point fell in the range of 223 to 224 °C. Next, `CC(C)(C)C(=O)C(Cl)NC(=O)c1ccc(Cl)cc1` (configuration not stated): 132 to 135 °C. In turn, `CCOc1ccc2cc(-c3nc(-c4ccccc4)no3)c(=O)oc2c1` had a melting point of 229 °C. The compound `COc1ccc(S(=O)(=O)n2ccc3ccnc(N(C)C)c32)cc1` gave a melting point of 155 to 158 °C. With `CCOc1cccc(C(S)C(=O)O)c1` (configuration not stated), the melting point was 105 to 107 °C.

Compound `N#Cc1ccc(-c2cc(-c3cc(C#N)ccc3Cl)on2)cc1` yielded a melting point of 207 to 209 °C. In the case of `CCOC(=O)C(C(=O)OC(c1ccccc1)c1ccccc1)C(=O)c1cc(F)c(OC)nc1Nc1ccc(F)cc1F` (configuration not stated) it was 130 to 131 °C; in that of `CC(C)OC(=S)SSCCSSC(=S)OC(C)C`, 66 °C; in that of `Cc1c(C(=O)O)sc2ccc(Br)cc12`, over 300 °C. Take `COc1ccc(CCC(C)=O)cc1S(N)(=O)=O`: the melting point was 176 to 179 °C. The compound `CCc1cccc(-c2nc3ccccc3[nH]2)n1` gave a melting point of 161 to 162 °C. `COC(=O)c1c(CN2CCC(S(C)(=O)=O)CC2)c(=O)c2ccc(F)cc2n1-c1ccccc1` yielded a melting point of 190 to 191 °C. In the case of `CS(=O)(=O)OCCNc1cc(Cl)ccc1[N+](=O)[O-]` it was 101 to 102 °C; in that of `COCOc1ccccc1-c1nc(N)c(C#N)c(-c2cccc([N+](=O)[O-])c2)c1C`, 154 to 155 °C; in that of `COc1cc2c(cc1OC)NC(=O)N(CCCN(C)CCCSc1ccccc1)CC2`, 107 to 110 °C. Turning to `CCCCCc1c(C(C)C)nc(C(C)C)c(CCO)c1-c1ccc(F)cc1`, the melting point is 81 to 83 °C. In the case of `Nc1ncnc2c1ncn2CCCCOCP(=O)(O)O`, the melting point was found to be 67 °C.

The compound `COc1cc(C(Cn2ccnc2)Sc2ccc(C(=O)O)cc2)cc(OC)c1OC` (configuration not stated) registered a melting point of 94 to 97 °C.

`O=C(Nc1ccc(-n2nc(C(F)(F)F)cc2C(F)(F)F)cc1)c1cccc(CO)c1` yielded a melting point of 160 to 162 °C. With `CSc1[nH]c2cccc3c2c1CC1C3C=C(C)CN1C` (configuration not stated), the melting point is 148 to 150 °C. In the case of `Cc1cccnc1-c1cc2cccnc2c(Cl)n1`, the melting point lay in the range of 130 to 131 °C. `CCOc1cc2c(cc1OC)Nc1[nH]cnc(=O)c1C2`: the melting point lay in the range of 335 to 336 °C. In the case of `O=C(c1ccc(OCCCl)cc1)N1CCOCC1`, the melting point was 102 to 104 °C. Compound `Cc1cc(-c2c(F)cc3c(=O)c(C(=O)O)cn4c3c2OC[C@@H]4C)cc(C)n1` returned a melting point of 305 to 308 °C. Next, `CC(C)N1C(=O)c2ccccc2N(C(=O)CCl)S1(=O)=O`: 133 to 135 °C. For `CC(C)(C)OC(=O)N1CCC(CCNC2(c3ccccc3Cl)C(=O)Nc3cc(Cl)c(Cl)cc32)CC1` (configuration not stated), the melting point lay within 248 to 249 °C. As for `FC(F)(F)Oc1ccc(-c2cncc(Cl)n2)cc1`, the melting point lay within 58 to 60 °C. `COc1cc(OC)c2c(=O)[nH]c(-c3ccc(N4CCN(C)CC4)cc3)nc2c1` yielded a melting point of 252 to 254 °C. `Cc1c(CCC2CC(OC3CCCCO3)CC(=O)O2)c2c(c(C)c1OC(=O)c1ccccc1)CC(C)(C)O2` (configuration not stated) displayed a melting point of 139 to 140 °C. For the compound `C=CCN1C(=O)COc2cc(F)c(N)cc21`, the melting point is 171 to 172 °C.

The compound `Oc1ccc2c(c1)CCc1c-2oc2cc(O)ccc12` registered a melting point of 219 to 220 °C. `CCCCc1nc2c(N)nc3ccccc3c2n1CCOc1ccccc1`: the melting point was 168 to 170 °C. In turn, `O=C(O)c1cccc(-c2ccc(CNC(=O)c3cccnc3Oc3ccc(F)cc3)cc2)c1` came in with a melting point of 184 to 186 °C. `O=C(O)CCCNC(=O)c1ccccc1NC(=O)c1ccccc1Br` gave a melting point of 117 to 118 °C. Take `COC(=O)[C@@H]1C[C@H](N)C(=O)[C@H]2[C@@]1(C)CC[C@H]1C(=O)O[C@H](c3ccoc3)C[C@]21C`: the melting point fell in the range of 237 to 240 °C. Regarding `Cc1ccccc1-c1ccc(C(=O)N2Cc3ccc(C(=O)NCCCc4ccccc4)n3Cc3ccccc32)cc1C`, the melting point fell in the range of 183 to 184 °C. Next, `CSc1nc(N)c2nsnc2n1`: 197 to 199 °C; `O=C(O)c1ccccc1CN1C(=O)C2(COc3cc4c(cc32)OCO4)c2ccccc21` (configuration not stated): over 250 °C. Consider `COCCOCCOc1ccc(NC(=O)NCc2ccc3c(c2)CN(C2CCC(=O)NC2=O)C3=O)cc1Cl` (configuration not stated), for which the melting point is 188 to 190 °C. `CC(O)N(C)C(=O)c1cc(C(C)(C)C)c(O)c(C(C)(C)C)c1` (configuration not stated): the melting point was 161 to 164 °C. The compound `COC(=O)c1c(NC(C)=O)sc2c1CCCC2` registered a melting point of 103 to 106 °C. Compound `CCSc1nc2c(C)sc(C(=O)OC)c2n1Cc1ccc(-c2ccccc2C#N)cc1` showed a melting point of 149 to 151 °C. As for `CO/N=C(\C(=O)OC)c1nsc(NC(=O)OC)n1`, the melting point was 158 to 161 °C. With `CCOC(=O)c1cccn1CCN1CCC(=C2c3ccn(C)c3CCn3ccnc32)CC1`, the melting point amounted to 162 °C. The compound `O=C(NCCc1ccc(F)cc1)OCc1ccccc1` yielded a melting point of 51 to 52 °C.

`Cc1cc(OCc2coc(/C=C/c3ccc(C(F)(F)F)cc3)n2)ccc1CS(=O)CCc1ccnn1C` (configuration not stated): the melting point lay in the range of 161 to 162 °C. Turning to `CC(C)CCN1C(=O)C(NC(=O)Oc2cccc(N(C)C)c2)C(=O)N(c2ccccc2)c2cc(Cl)c(Cl)cc21` (configuration not stated), the melting point is 163 to 164 °C. In the case of `CC(=NO)c1ccccc1Nc1c(Cl)ccc(C)c1Cl` it was 116 to 118 °C; in that of `CCOC(=O)C=Cc1cc([N+](=O)[O-])ccc1C`, 44 °C; in that of `CON=C1C(C)(C)c2cc3nc(SCc4ncc(C)c(OC)c4C)[nH]c3cc2C1(C)C`, 110 to 112 °C. In turn, `CCOC(=O)c1c(CN2CCNCC2)nc2cc(OC)c(OC)cc2c1-c1ccc(OC)c(OC)c1` showed a melting point of 192 to 193 °C. The compound `O=C1N(CCN2CCCC2)CCN1c1ccc(-c2nnc(CSCCOc3ccccc3)o2)cc1` registered a melting point of 125 to 129 °C. As to `CCOC(=O)c1ccc(/C=C(\C)c2ccc3c(c2)C(C)(C)C(=O)CC3(C)C)cc1`, the melting point was in the range of 173 to 174 °C. `CN(C)Cc1cc(C(=O)C2CCCCC2)cc(C(C)(C)C)c1O` displayed a melting point of 149 to 150 °C.

`CCc1c2c(c(CC)c3ccc(OC)cc13)-c1ccc(OC)cc1C2` yielded a melting point of 155 to 157 °C.

With `CC(CN(C)C)C(C#N)(c1ccccc1)c1ccccc1` (single isomer, unassigned; (-)), the melting point lay within 102 to 103 °C. In turn, `COc1ccc(CSCC(C)C(=O)O)cc1` (configuration not stated) showed a melting point of 74 to 82 °C. On to `O=C(N[C@@H](Cc1ccc2ccccc2c1)[C@H]1CO1)OCc1ccccc1`, for which the melting point was in the range of 115 to 116 °C. Take `CCCCCCCCCCn1c(C)cc(C)c(C(=O)O)c1=O`: the melting point was 67.5 to 72 °C. `O=C(C=CCN1CCC(O)(c2ccc(Cl)cc2)CC1)c1ccc(F)cc1` had a melting point of 97 to 97.5 °C. In the case of `O=C1C=C(O)C(=O)c2cc(Br)ccc21` it was 197 °C.

In the case of `COc1ccc(Br)c(C(Cl)=NNS(=O)(=O)c2ccccc2)c1`, the melting point fell in the range of 104 to 106 °C. The compound `CC1(C)C2CC[C@@]1(C)C(=O)C(C(=O)Nc1ccc(F)c(C(F)(F)F)c1)C2=O` (some centres not stated) displayed a melting point of 96 to 98 °C. Regarding `O=[N+]([O-])c1ccc(NCCS(=O)(=O)NCCCOc2cccc(CN3CCCCC3)c2)cc1`, the melting point lay within 140 to 142 °C. `CCOC(=O)c1[nH]c(CC)nc1C(C)(C)O`: the melting point lay within 181 to 184 °C. In turn, `CN1N=C(c2ccc(Cl)cc2)CC1=O` gave a melting point of 189 °C. As to `COC1(c2nc3ccc(F)cc3s2)C=CC(=NS(=O)(=O)c2ccc(C)cc2)C=C1` (configuration not stated), the melting point turned out to be 135 °C. In the case of `O=C(CCC(=O)N1CCC[C@H]1C(=O)O)c1ccc(Cl)s1`, the melting point lay in the range of 131 to 133 °C. Compound `FC(F)(F)c1cccc(-c2cnnn2-c2cc(Cl)ccc2OCc2nnn[nH]2)c1` came in with a melting point of 181 to 184 °C. In the case of `COC(=O)C(=O)c1c[nH]c2ccccc12`, the melting point was 226 to 228 °C. `C#CCn1c(=O)n(-c2ccccc2)c2ccccc21` displayed a melting point of 145 to 147 °C. In the case of `COc1cc([C@H]2CS[C@@H](c3cc(OC)c(OC)c([N+](=O)[O-])c3)S2)cc(OC)c1OC` (relative stereo) it was 133 to 134 °C; in that of `Nc1nonc1-c1nc2ccccc2n1CC(=NO)c1ccc(Br)cc1`, 198 to 201 °C; in that of `COCC1CN(c2ccc(C3CC4C=CC3C4)cc2)C(=O)O1` (racemic), 46 to 48 °C. In the case of `CS(=O)(=O)Nc1ccc(/C=C\COCCCCCCO)cc1`, the melting point was 65 to 67 °C. For `Clc1ccc(Oc2ccc(Cl)nn2)cc1`, the melting point was 119 °C. The compound `Nc1cc(Cl)cc(Cl)c1C(=O)NCc1ccc(F)cc1` came in with a melting point of 89 to 94 °C. Next, `O=C(Nc1ccccc1)OCc1cn(-c2cc3cc(C(=O)O)c(=O)[nH]c3cc2C(F)(F)F)cn1`: 178 to 180 °C. `CC(=O)c1ccc2c(c1)C1(c3cc(C(C)=O)ccc3-2)c2cc(C(C)=O)ccc2-c2ccc(C(C)=O)cc21` returned a melting point of over 300 °C. In turn, `O=C(O)CCC(=O)c1ccc(-c2ccc(C(F)(F)F)cc2)cc1` showed a melting point of 172 to 174 °C. In the case of `C#CCn1cc(C#N)c(CO)c1`, the melting point is 95 °C.

These data come from a melting point compilation (Tetko et al.; mined from patent text by program, amines drawn as free bases though some values may be those of a salt).
